Measurements reported in the supplement of paper PMC10307832.

Assays:
Assay in all cases: relative viability (nuclei count vs DMSO), 5 days (fraction); higher = more cells survive
[1] = compound: CC1=CC(=CC=C1)NC2=NC(=CS2)C3=CC=NC=C3 + Cc1nc(NC(=O)N2CCC[C@H]2C(N)=O)sc1-c1ccnc(C(C)(C)C(F)(F)F)c1 [Alpelisib] (partner 2 µM)
How it was run: (§1)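 Medians of duplicate plates are given as relative viability. That measure is the nuclei count in treated wells divided by the count in vehicle wells. Counts were taken on 4× images of lung cancer cell lines in 1536-well plates, 5 days after pin-tool dosing the day after seeding with one drug alone or a fixed anchor-drug dose plus five library-drug doses (not always all listed) in √10 steps.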

[2] = compound: Cc1ccc(NC(=O)c2ccc(CN3CCN(C)CC3)cc2)cc1Nc1nc(-c2cccnc2)cs1 [Masitinib] + Nc1nc2[nH]cc(CCc3ccc(C(=O)N[C@@H](CCC(=O)O)C(=O)O)cc3)c2c(=O)[nH]1 [Pemetrexed] (partner 0.2 µM)
How it was run: as §1

[3] = compound: CC1=CC(=CC=C1)NC2=NC(=CS2)C3=CC=NC=C3
How it was run: (§2)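 For viability, nuclei in each treated well were divided by nuclei in vehicle wells and the median across plates was taken. Lung cancer cell lines in 1536-well plates were pinned with five library-drug doses (not always all listed) spaced by √10, cultured 5 days without medium change, and imaged at 4× after Hoechst staining, with plates passing only at control CV below 25% and at least one doubling.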

[4] = compound: Cc1ccc(NC(=O)c2ccc(CN3CCN(C)CC3)cc2)cc1Nc1nc(-c2cccnc2)cs1 [Masitinib]
How it was run: as §2

Row | Cell Line | relative viability ([1]; first compound 0.08 µM) | relative viability ([1]; first compound 0.253 µM) | relative viability ([1]; first compound 0.8 µM) | relative viability ([1]; first compound 2.53 µM) | relative viability ([1]; first compound 8 µM) | relative viability ([2]; first compound 0.03162 µM) | relative viability ([2]; first compound 0.1 µM) | relative viability ([2]; first compound 0.3162 µM) | relative viability ([2]; first compound 1 µM) | relative viability ([3]; 0.08 µM) | relative viability ([3]; 0.253 µM) | relative viability ([3]; 0.8 µM) | relative viability ([3]; 2.53 µM) | relative viability ([3]; 8 µM) | relative viability ([4]; 0.01 µM) | relative viability ([4]; 0.03162 µM) | relative viability ([4]; 0.1 µM) | relative viability ([4]; 0.3162 µM) | relative viability ([4]; 1 µM) | relative viability ([2]; first compound 0.01 µM)
1 | LCLC-103H | 0.774 | 0.875 | 0.909 | 0.967 | 0.883 | 0.465 | 0.416 | 0.469 | 0.424 | 0.896 | 0.886 | 0.913 | 0.968 | 0.712 | 0.741 | 1.01 | 0.757 | 0.816 | 0.899 | –
2 | LK-2 | 0.898 | 1.09 | 1.33 | – | 1.19 | 0.34 | 0.31 | 0.281 | 0.217 | 0.816 | 0.98 | 1.27 | 0.793 | 1.41 | 1.09 | 0.89 | 1.23 | 1.19 | 1.08 | 0.291
3 | LOU-NH91 | 0.617 | 0.686 | 0.59 | 0.698 | 0.592 | 0.312 | 0.402 | 0.365 | 0.376 | 0.826 | 0.849 | 0.943 | 0.905 | 0.851 | 0.839 | 0.888 | 0.925 | 0.838 | 0.904 | 0.363
4 | LU99A | – | 0.49 | 0.433 | 0.428 | 0.443 | 0.21 | 0.16 | 0.181 | 0.219 | 0.877 | 0.917 | 0.972 | 0.997 | 0.956 | 1.03 | 0.94 | 1.09 | 1.06 | 0.916 | 0.158
5 | LXF-289 | 0.993 | 1.03 | 1.02 | 1.03 | 0.91 | 0.973 | 0.917 | 0.971 | 0.943 | 0.942 | 0.987 | 0.974 | 0.974 | 0.915 | 0.806 | 0.973 | 0.941 | 1 | 1.01 | 0.773
6 | NCI-H23 | 0.567 | 0.677 | 0.727 | 0.634 | 0.738 | 0.607 | 0.699 | 0.641 | 0.626 | 0.879 | 0.808 | 1.01 | 0.835 | 0.972 | 0.888 | 0.926 | 1.03 | 0.933 | 0.916 | 0.795
7 | NCI-H322M | 0.747 | 0.868 | 0.771 | 0.903 | 0.853 | 0.594 | 0.625 | 0.615 | 0.582 | 0.819 | 0.845 | 0.948 | 1.02 | 0.961 | 0.934 | 0.948 | 0.933 | 0.897 | 0.848 | 0.606
8 | NCI-H358 | 0.662 | 0.772 | 0.645 | 0.929 | 0.791 | 0.169 | 0.167 | 0.163 | 0.178 | 0.997 | 0.899 | 0.868 | 1.01 | 0.966 | 0.963 | 0.967 | 0.961 | 0.892 | 0.893 | 0.16
9 | NCI-H441 | 0.659 | 0.75 | 0.73 | 0.577 | 0.811 | 0.273 | 0.244 | 0.261 | 0.256 | 0.957 | 1 | 1.01 | 0.922 | 0.866 | 1.01 | 0.956 | 1.09 | 1.25 | 1.07 | 0.261
10 | NCI-H460 | 0.331 | 0.368 | 0.375 | 0.37 | 0.307 | 0.0629 | 0.0594 | 0.0647 | 0.0579 | 0.965 | 0.908 | 0.936 | 0.884 | 0.857 | 0.864 | 1.01 | 0.949 | 0.876 | 0.983 | 0.0557
11 | NCI-H520 | 0.741 | 0.855 | 0.726 | 1.09 | 1.02 | 0.851 | 0.731 | 0.77 | 0.857 | 0.922 | 1.06 | 1.03 | 1.08 | 0.943 | 1.01 | 1.11 | 1.24 | 0.999 | 1.01 | 0.652
12 | NCI-H596 | 0.421 | 0.402 | 0.35 | 0.412 | 0.401 | 0.536 | 0.501 | 0.463 | 0.472 | 0.917 | 0.883 | 0.86 | 0.948 | 0.803 | 0.934 | 1.13 | 0.949 | 0.901 | 0.837 | 0.553
13 | NCI-H647 | 1.05 | 0.935 | 1.11 | 1.08 | 0.751 | 0.178 | 0.174 | 0.185 | 0.164 | 0.816 | 0.87 | 0.797 | 0.869 | 0.76 | 0.926 | 0.959 | 1.07 | 0.983 | 0.873 | 0.166
14 | NCI-H650 | 0.929 | 1.14 | 1.16 | – | 1.11 | 0.832 | 1.04 | 1.01 | 0.99 | 0.805 | 0.881 | 1.01 | 0.752 | 1.15 | 0.998 | 0.963 | 1.09 | 1.04 | 0.899 | 0.857
15 | NCI-H661 | 0.469 | 0.462 | 0.971 | 0.724 | 1.01 | 0.913 | 0.946 | 0.939 | 0.895 | 0.907 | 0.944 | 0.913 | 0.914 | 0.99 | 0.9 | 0.977 | 0.986 | 0.967 | 0.947 | 0.9
16 | NCI-H838 | 0.91 | 0.914 | 0.868 | 0.863 | 0.743 | 0.256 | 0.254 | 0.247 | 0.244 | 0.823 | 0.891 | 0.894 | 0.835 | 0.846 | 0.867 | 0.855 | 0.955 | 0.907 | 0.929 | 0.267
